Read-outs that look alike come from different tables or passages of the source.
Legend:
Experiment in all cases: intrinsic tryptophan fluorescence quenching
Type in all cases: binding
HucR-E48Q [1] = biological target: T1, HucR-E48Q (Deinococcus radiodurans, UniProt Q9RV71, E48Q)
[2] = biological target: T2, HucR (hypothetical uricase regulator), HucR-WT (Deinococcus radiodurans, UniProt Q9RV71)
T2 sequence (Q9RV71 1-181): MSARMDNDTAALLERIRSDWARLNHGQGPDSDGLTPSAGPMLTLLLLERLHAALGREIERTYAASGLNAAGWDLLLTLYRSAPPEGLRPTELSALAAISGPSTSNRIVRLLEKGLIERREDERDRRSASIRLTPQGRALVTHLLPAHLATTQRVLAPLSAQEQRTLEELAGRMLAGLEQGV

HucR-H51F [3] = biological target: T3, HucR-H51F (Deinococcus radiodurans, UniProt Q9RV71, H51F)
HucR-H51F [4] = biological target: T3, HucR-H51F; remark: listed apart in the source
HucR-E48Q [5] = biological target: T1, HucR-E48Q; remark: listed apart in the source
[6] = biological target: T2, HucR (hypothetical uricase regulator), HucR-WT; remark: listed apart in the source

| Structure (SMILES) | Kd (HucR-E48Q [1]) | Kd [2] | Kd (HucR-H51F [3]) | Kd (HucR-H51F [4]) | Kd (HucR-E48Q [5]) | Kd [6] |
| --- | --- | --- | --- | --- | --- | --- |
| O=c1[nH]c(=O)c2[nH]c(=O)[nH]c2[nH]1 [urate] | 2.2 ± 0.8 µM | 11.4 ± 2.9 µM | 14.7 ± 1.2 µM | – | – | – |
| O=c1[nH]c(=O)c2[nH]cnc2[nH]1 [xanthine] | – | – | – | ~17 µM | ~17 µM | ~17 µM |

Source: article PMC4955742 (Molecular bioSystems, 2016)
